# Laboratory results: patent US5939416A, “Benzo (5,6) cycloheptapyridine compounds useful as farnesyl protein transferase inhibitors” (Schering Corporation, priority 1997, dated 1999)
# Tests used:
# [1] = biological target: farnesyl protein transferase (Homo sapiens, UniProt P49354+P49356); assay: FPT IC50 (inhibition of farnesyl protein transferase, in vitro enzyme assay); assay type: biochemical
# Experimental: (§1) FPT IC50 (inhibition of farnesyl protein transferase, in vitro enzyme assay), COS Cell IC50 (Cell-Based Assay), GGPT IC50 (inhibition of geranylgeranyl protein transferase, in vitro enzyme assay), Cell Mat Assay, and anti-tumor activity (in vivo anti-tumor studies) are determined by the assay procedures described in WO 95/10516.
# COS Cell = COS Cell IC50 (Cell-Based Assay)
# Experimental: as §1
IC50 [1] [nM],Compound,IC50 (COS Cell) [nM]
1.8,O=C1NC[C@@H](C(=O)N2CCC(CC(=O)N3CCC([C@H]4c5ncc(Br)cc5CCc5cc(Cl)cc(Br)c54)CC3)CC2)N1 [Example 4],33
3.98,"O=C1NCC(CC(=O)N2CCC(C3c4ncc(Br)cc4CCc4cc(Cl)cc(Br)c43)CC2)CO1 (centres unmarked) [Example 2, 4-(3,10-Dibromo-8-chloro-6,11-dihydro-5H-benzo[5,6]cyclohepta[1,2-b]pyridin-11-yl)-1-[(tetrahydro-2-oxo-2H-1,3-oxazin-5-yl)acetyl]piperidine]",9
2.3,O=C1N[C@H](C(=O)N2CCC(CC(=O)N3CCC([C@H]4c5ncc(Br)cc5CCc5cc(Cl)cc(Br)c54)CC3)CC2)CO1 [Example 3],7
15,"O=C1NCC(CC(=O)N2CCC(C3c4ncc(Br)cc4CCc4cc(Cl)cc(Cl)c43)CC2)CO1 (centres unmarked) [Example 1, 4-(3-Bromo-8,10-dichloro-6,11-dihydro-5H-benzo[5,6]cyclohepta[1,2-b]pyridin-11-yl)-1-[(tetrahydro-2-oxo-2H-1 3-oxazin-5-yl)acetyl]piperidine]",50
